The values that follow come from paper doi:10.1101/2025.03.14.643303, “A genome-scale drug discovery pipeline uncovers new therapeutic targets and a unique p97 allosteric binding site in Schistosoma mansoni” (bioRxiv, 2025).

SMILES strings stand for the structures. Read-outs that look alike come from different tables or passages of the source.

For test [1], the system named is adult S. mansoni worms. The experiment in a line: Treatment of adult S. mansoni worms in culture with inhibitors (attachment to tissue culture substrate, morphology; single 10 μM and dose-response EC50). The note with it: for EC50: read-out: S. mansoni EC50. It counts as cell-based, Schistosoma mansoni.
Test [2] concerns K48 polyubiquitinated proteins. Nature of the test: Western blot of drug-treated worm lysate with K48-linkage specific polyubiquitin antibody. The note with it: worm lysate after 48 hr of treatment. The test is classed as cell-based, Schistosoma mansoni. The procedure:
For drug treatment studies, 10 male adult worms (single or paired with females) were supplemented with either 0.1% DMSO or inhibitor (0.1% DMSO final). […]. After 48 hr, male parasites were separated from females using 0.25% tricaine in Basch Media 169, flash frozen in liquid nitrogen, and stored at −80°C until further processing. Male worm samples were homogenized with a pestle in 50 μL lysis buffer containing 2X sample buffer [0.471 M Tris (pH 6.7 with phosphoric acid), 20% glycerol, 5% SDS), protease inhibitor cocktail (Roche, cOmplete Mini, EDTA-free Tablets) and 10 mM DTT. The lysates were then sonicated on high for 5 min (30 sec on, 30 sec off) using a Bioruptor UCD-200. Lysates were centrifuged for 5 min at 10,000 g to remove debris. Total protein was measured using the Detergent Compatible Bradford Assay (Pierce). 50 μg of protein samples denatured in SDS Sample buffer (95°C for 5 min) were separated on a Bio-Rad 4–20% TGX Stain-Free gel along with Precision Plus Protein Dual Color Standards (Bio-Rad) as a marker. Proteins were then transferred to a nitrocellulose membrane (Bio-Rad). The membrane was blocked in a 1:5 solution of Li-Cor Odyssey Blocking buffer in PBST for 1 hr before being immunoblotted overnight at 4°C with 1:500 K48-linkage Specific Polyubiquitin Antibody (Cell Signaling Technology, 4289S) and 0.01 μg/mL mouse anti-actin antibody (1:10,000) (Developmental Studies Hybridoma Bank, JLA20) diluted in a 1:5 solution of Li-Cor Odyssey Blocking buffer in PBST. The membrane was washed 3x in TBST and then incubated in 1:5 Li-Cor Odyssey Blocking buffer containing the secondary antibodies (1:10,000 Li-Cor, 925–68071, goat anti-rabbit IRDye 680 RD, and 1:20,000 Li-Cor, 925–32280, goat anti-mouse IgM IRDye 800CW) for 1 hr at RT. The blot was washed in TBST 3x before being imaged on a LiCor Odyssey Infrared Imager.
In general terms: In western blotting, separated proteins are transferred to a membrane and probed.

The next test deals with HepG2 cells. Nature of the test: HepG2 cytotoxicity assay (Cell Titer Glo 2.0). It counts as cell-based, human. The procedure: HepG2 cells (ATCC) were plated at 2500 cells/well in 50 μL/well, dispersing cells using a 25g needle to break up clumps prior to plating. Plates were incubated for 24hr at 37C, 5% CO2. Following 24hr, 50 μL media containing 0.6% DMSO was added to a set of wells on one plate. The plate and Cell Titer Glo 2.0 reagent were brought to RT. A T=0 read was taken by adding 40 μL reagent/well, rocking the plate at 100 rpm for 2 min, then reading luminescence ~10 min later. […] 50 μL 2x concentrated compound was added to wells containing cells in 50 μL 24 hr after plating. Concentrations were tested in triplicate at following values: 30, 10, 3.3, 1.1, 0.37, 0.12, and 0.04 μM. Plates were incubated for 72 hr at 37C, 5% CO2. Following equilibration to room temperature, 40 μL undiluted reagent was added to each well, the plate rocked at 100 rpm for 2 min and then read for luminescent signal ~10 min later.
Values are plotted in excel and the 50% point determined by interpolation. Values were revisualized in Prism.
(In ATP-based viability assays light output follows the ATP content of the culture.)

Test [3] has as its target S. mansoni p97 (Smp_018240) (Schistosoma mansoni, UniProt G4M0P7). Nature of the test: biochemical. As to conditions: for Fold Selectivity: H. sapiens vs S. mansoni p97 IC50.
Test [4] relates to adult S. mansoni worms. Also on record: method as in PMID 32973031. As to conditions: schistosomes in vitro; cited from earlier work.
A further test has as its target T1, H. sapiens p97 (P55072) (Homo sapiens, UniProt P55072).
T1 construct: 6xHis (C); made in house; host or cells: E. coli BL21 (DE3)
Nature of the test: p97 ATPase activity, ATP consumption assay (Kinase-Glo), IC50 / counter screen. It counts as biochemical. As to conditions: Hs p97; 100 μM – 1 nM; Suppl. Fig. 9C.

By EC50 is commonly meant the midpoint of the concentration-response curve. Broadly, the GI50 is the concentration at which growth is held to half of that of the control. Usually IC50 stands for the concentration at which inhibition is half-maximal.

S. mansoni p97 (Smp_018240), sequence (G4M0P7 entry or part of it): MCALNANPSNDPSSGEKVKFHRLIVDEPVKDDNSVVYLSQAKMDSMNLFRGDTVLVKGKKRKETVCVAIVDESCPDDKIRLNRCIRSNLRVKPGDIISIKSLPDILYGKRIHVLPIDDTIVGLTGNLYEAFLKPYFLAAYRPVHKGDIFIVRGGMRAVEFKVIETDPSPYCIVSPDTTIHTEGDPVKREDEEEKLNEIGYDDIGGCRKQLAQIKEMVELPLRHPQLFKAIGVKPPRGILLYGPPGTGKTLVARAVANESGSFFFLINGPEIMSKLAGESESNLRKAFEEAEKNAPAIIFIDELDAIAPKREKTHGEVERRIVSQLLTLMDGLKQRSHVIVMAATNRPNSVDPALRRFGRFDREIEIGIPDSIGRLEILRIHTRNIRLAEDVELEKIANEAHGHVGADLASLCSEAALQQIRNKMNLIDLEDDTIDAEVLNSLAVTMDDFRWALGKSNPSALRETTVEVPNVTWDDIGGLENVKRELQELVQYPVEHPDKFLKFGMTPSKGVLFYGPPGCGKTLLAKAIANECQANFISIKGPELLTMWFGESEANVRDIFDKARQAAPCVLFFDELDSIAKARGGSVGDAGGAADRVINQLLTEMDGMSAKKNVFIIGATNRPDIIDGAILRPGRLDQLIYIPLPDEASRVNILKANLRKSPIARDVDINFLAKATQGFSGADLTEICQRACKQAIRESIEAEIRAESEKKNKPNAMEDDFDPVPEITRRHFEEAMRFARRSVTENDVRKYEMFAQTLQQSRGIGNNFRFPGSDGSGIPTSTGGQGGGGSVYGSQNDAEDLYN
T1 sequence (P55072 whole entry): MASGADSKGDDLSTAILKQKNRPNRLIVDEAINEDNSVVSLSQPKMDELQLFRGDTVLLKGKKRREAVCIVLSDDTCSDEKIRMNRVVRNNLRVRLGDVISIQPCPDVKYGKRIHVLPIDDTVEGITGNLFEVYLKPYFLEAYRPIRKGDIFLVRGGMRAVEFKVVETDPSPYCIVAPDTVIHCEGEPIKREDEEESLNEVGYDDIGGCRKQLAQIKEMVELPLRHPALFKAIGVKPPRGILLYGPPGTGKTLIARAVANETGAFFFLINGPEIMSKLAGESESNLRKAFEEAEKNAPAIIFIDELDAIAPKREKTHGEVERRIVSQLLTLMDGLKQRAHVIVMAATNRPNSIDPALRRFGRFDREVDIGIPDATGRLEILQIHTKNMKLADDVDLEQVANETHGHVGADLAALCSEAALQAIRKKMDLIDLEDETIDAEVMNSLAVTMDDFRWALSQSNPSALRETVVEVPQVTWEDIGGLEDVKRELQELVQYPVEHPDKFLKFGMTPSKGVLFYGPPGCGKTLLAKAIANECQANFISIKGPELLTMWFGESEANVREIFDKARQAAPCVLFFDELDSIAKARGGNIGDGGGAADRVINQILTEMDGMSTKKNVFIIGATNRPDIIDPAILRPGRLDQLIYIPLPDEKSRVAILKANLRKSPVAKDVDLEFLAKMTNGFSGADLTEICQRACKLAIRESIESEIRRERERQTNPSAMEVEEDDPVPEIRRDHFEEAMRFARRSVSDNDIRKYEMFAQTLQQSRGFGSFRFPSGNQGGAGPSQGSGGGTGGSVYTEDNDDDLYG

In the case of `Cc1cc2c(C(N)=O)cccc2n1-c1nc2c(c(NCc3ccccc3)n1)COCC2` [CB-5083, reference compound], the concentration for a half-maximal effect (EC50) in the test with adult S. mansoni worms [1] (worms, Suppl. Fig. 11E) is 360 nM. For the same compound, the “accumulation of K48 polyubiquitinated proteins by western blot” value (from here on “accumulation”) in test [2] was “accumulation of proteins targeted for proteasome-mediated degradation”. For the same compound, the GI50 with HepG2 cells (HepG2, 72 hr, 50% growth inhibition normalized to time = 0, Suppl. Fig. 11A, read-out: GI50) stood at 310 nM; in the test on HepG2 cells (HepG2, Suppl. Fig. 11E, read-out: HepG2 GI50), 310 nM. In addition, the IC50 turned out to be 410 nM with HepG2 cells (HepG2, 72 hr, 50% growth inhibition relative to control, Suppl. Fig. 11A, read-out: IC50) and 410 nM with HepG2 cells (HepG2, Suppl. Fig. 11E, read-out: HepG2 IC50). The “Fold Selectivity” value in test [3] (Suppl. Fig. 11D) is 2.0. In addition, in test [3] (S. mansoni vs H. sapiens p97 IC50), the “selectivity for the schistosome enzyme over its human counterpart” value is on record as ~ 2 fold. The “parasite death in vitro” value in the test with adult S. mansoni worms [4] is “sub-micromolar”.
Take `O=C(C#Cc1ccncc1)Nc1ccc2oc(-c3ccccn3)nc2c1` [Compound 739, N-(2-(pyridin-2-yl)benzo[d]oxazol-5-yl)-3-(pyridin-4-yl)propiolamide]: in the test with adult S. mansoni worms [1] (10 μM), the “time to detachment of adult worms in culture” value is at most 24 h. Moreover, the EC50 in the test on adult S. mansoni worms [1] (Schistosoma mansoni, adult parasites, fraction of worms attached, 72 hours of drug treatment, in culture until D5, 50 μM - 10 nM, Suppl. Fig. 9C) amounted to 1300 nM. Further, the “effect on adult worms” value in the test on adult S. mansoni worms [1] (benzoxazole propiolamide series, 10 μM, treated 72 hours, monitored until D5) was “death of the parasites”. Also, the “accumulation” value in test [2] was “accumulation of K48 polyubiquitin moieties”. Also, the IC50 was 320 ± 26 nM against H. sapiens p97 (P55072); 1200 nM in the test on HepG2 cells (Homo sapiens, HepG2, 72 h); 1200 nM in the test on HepG2 cells (Homo sapiens, HepG2, read-out: HepG2 IC50); 150 nM in test [3] (schistosome p97 enzyme, read-out: IC50). In addition, the GI50 is 850 nM in the test on HepG2 cells (Homo sapiens, HepG2, 72 h) and 850 nM in the test on HepG2 cells (Homo sapiens, HepG2, read-out: HepG2 GI50). The “Fold Selectivity” value in test [3] (Suppl. Fig. 9C) was 2.1.
Regarding `Cc1cc(OCc2nnc(SC3CCCC3)n2-c2cccnc2)ccc1-c1ccc(S(C)(=O)=O)cc1` [NMS-873], in test [2], the “accumulation” value was “accumulation of proteins targeted for proteasome-mediated degradation”. For the same compound, the IC50 in test [3] (recombinant enzyme, Kinase-Glo, Fig. 3D, read-out: S. mansoni (IC50)) came to 230 ± 75 nM. In the test with adult S. mansoni worms [4], the “parasite death in vitro” value is on record as “sub-micromolar”.
As for `CC(C)C[C@H](NC(=O)[C@H](Cc1ccccc1)NC(=O)c1cnccn1)B(O)O` [bortezomib], the “parasite death in vitro” value with adult S. mansoni worms [4] is recorded as “killed”.
